Results from US20250163104A1, “MACROCYCLIC IMMUNOMODULATORS” (priority 2021, published 2025).
Where a SMILES comes first, the peptide text is derived from it. Bridges are numbered along the chain shown (N, C = ends). [ ]: non-standard residue; d: D form. The star is where a group is joined. Phe(3-CF3) = N[C@@H](Cc1cccc(C(F)(F)F)c1)C(=O)O; Phe(4-COOH) = N[C@@H](Cc1ccc(C(=O)O)cc1)C(=O)O; Phe(3,5-F2) = N[C@@H](Cc1cc(F)cc(F)c1)C(=O)O; Bip = N[C@@H](Cc1ccc(-c2ccccc2)cc1)C(=O)O; Phe(3-Me) = Cc1cccc(C[C@H](N)C(=O)O)c1; Val(3-OH) = CC(C)(O)[C@H](N)C(=O)O; hArg = N=C(N)NCCCC[C@H](N)C(=O)O; 4Pal = N[C@@H](Cc1ccncc1)C(=O)O; Cha = N[C@@H](CC1CCCCC1)C(=O)O; Cit = NC(=O)NCCC[C@H](N)C(=O)O; Carboxymethyl = O=C(O)C*; Orn = NCCC[C@H](N)C(=O)O; Pra = C#CC[C@H](N)C(=O)O; Dab = NCC[C@H](N)C(=O)O; Nva = CCC[C@H](N)C(=O)O; Dap = NC[C@H](N)C(=O)O

Target: T1, human PD-1 / PD-L1-Ig binding on Jurkat cell line over-expressing human PD-1 (Jurkat-PD-1) (Homo sapiens, UniProt Q15116)
T1 construct: expressed in transfected cells; host or cells: Jurkat
Assay: Jurkat-PD-1 Cell Binding High-Content Screening Assay (CBA)
Type: cell-based
Settings: Jurkat-PD-1 cells, PE-labeled PD-L1-Ig 20 nM final; read-out: Jurkat HPD1_PDL1 IC50
In short: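 Read-out: high-content imaging of PE-tagged PD-L1-Ig bound to Jurkat cells overexpressing human PD-1, after fixation with 4% paraformaldehyde and Hoechst 33342 nuclear staining. Ligand was used at 20 nM final for 1 hour, after a 2 h compound exposure at 37° C in serum-containing DMEM.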

T1 sequence (Q15116 25-288): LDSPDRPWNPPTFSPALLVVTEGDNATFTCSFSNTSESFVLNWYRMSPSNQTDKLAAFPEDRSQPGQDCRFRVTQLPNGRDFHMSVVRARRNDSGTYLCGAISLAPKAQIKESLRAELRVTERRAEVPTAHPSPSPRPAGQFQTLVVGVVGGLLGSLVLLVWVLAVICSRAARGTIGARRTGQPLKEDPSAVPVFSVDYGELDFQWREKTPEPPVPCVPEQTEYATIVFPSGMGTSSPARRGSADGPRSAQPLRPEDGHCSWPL

Compound | IC50 [nM]
C#CC[C@H](NC(=O)[C@H](CCN)NC(=O)[C@@H]1CSCC(=O)N[C@@H](CCN)C(=O)N[C@@H](Cc2ccc(C(=O)O)cc2)C(=O)N[C@@H](CC(=O)O)C(=O)N[C@@H](Cc2cccc(C)c2)C(=O)N[C@@H](Cc2ccc(C(=O)O)cc2)C(=O)N[C@@H](Cc2ccc(-c3ccccc3)cc2)C(=O)N[C@@H](Cc2ccc(C(=O)O)cc2)C(=O)N[C@@H](CCCN)C(=O)N[C@H](CC(C)C)C(=O)N[C@@H](CCN)C(=O)N[C@@H](CC2CCCCC2)C(=O)N[C@@H](C(C)(C)O)C(=O)N[C@@H](Cc2cnc[nH]2)C(=O)N1)C(N)=O [Compound 1849] ({CH2CO}-[Dab][Phe(4-COOH)]D[Phe(3-Me)][Phe(4-COOH)][Bip][Phe(4-COOH)][Orn][dL][Dab][Cha][Val(3-OH)]HC[Dab][Pra]-NH2; thioether N-14) | 7.8
CC(C)C[C@H]1NC(=O)[C@H](CCCN)NC(=O)[C@H](CCCNC(N)=O)NC(=O)[C@H](Cc2ccc(-c3ccccc3)cc2)NC(=O)[C@H](C(C)C)NC(=O)[C@H](Cc2c[nH]c3ccccc23)NC(=O)[C@H](CC(=O)O)NC(=O)[C@H](Cc2cc(F)cc(F)c2)NC(=O)[C@H](CN)NC(=O)CSC[C@@H](C(=O)N[C@@H](C)C(N)=O)NC(=O)[C@H]([C@@H](C)O)NC(=O)[C@H](C(C)C)NC(=O)[C@H](CC2CCCCC2)NC(=O)[C@H](CCN)NC1=O [Compound 2131] ({CH2CO}-[Dap][Phe(3,5-F2)]DWV[Bip][Cit][Orn][dL][Dab][Cha]VTCA-NH2; thioether N-14) | 37.2
CC(C)C[C@@H]1NC(=O)[C@H](CCN)NC(=O)[C@@H](CC(C)C)NC(=O)[C@H](CCCN)NC(=O)[C@H](C(C)C)NC(=O)[C@H](Cc2ccc(-c3ccccc3)cc2)NC(=O)[C@H](C(C)C)NC(=O)[C@H](Cc2c[nH]c3ccccc23)NC(=O)[C@H](CC(N)=O)NC(=O)[C@H](Cc2ccc(O)cc2)NC(=O)[C@H](CC(N)=O)NC(=O)CSC[C@@H](C(=O)NCC(N)=O)NC(=O)[C@H](CO)NC(=O)[C@H](C(C)C)NC1=O [Compound 1081] ({CH2CO}-NYNWV[Bip]V[Orn][dL][Dab]LVSCG-NH2; thioether N-14) | 28.6
CC(C)C[C@H]1NC(=O)[C@H](CCCN)NC(=O)[C@H](CCCNC(N)=O)NC(=O)[C@H](Cc2ccc(-c3ccccc3)cc2)NC(=O)[C@H](C(C)C)NC(=O)[C@H](Cc2c[nH]c3ccccc23)NC(=O)[C@H](CC(=O)O)NC(=O)[C@H](Cc2ccc(OCC(=O)O)cc2)NC(=O)[C@H](CN)NC(=O)CSC[C@@H](C(=O)N[C@@H](C)C(N)=O)NC(=O)[C@H]([C@@H](C)O)NC(=O)[C@H](C(C)C)NC(=O)[C@H](Cc2ccc(O)cc2)NC(=O)[C@H](CCN)NC1=O [Compound 1346] ({CH2CO}-[Dap]Y(Carboxymethyl)DWV[Bip][Cit][Orn][dL][Dab]YVTCA-NH2; thioether N-14) | 95.8
C#CC[C@H](NC(=O)CNC(=O)[C@@H]1CSCC(=O)N[C@@H](CN)C(=O)N[C@@H](Cc2ccc(OCC(=O)O)cc2)C(=O)N[C@@H](CC(=O)O)C(=O)N[C@@H](Cc2cccc(C)c2)C(=O)N[C@@H](Cc2ccc(OCC(=O)O)cc2)C(=O)N[C@@H](Cc2ccc(-c3ccccc3)cc2)C(=O)N[C@@H](Cc2ccc(OCC(=O)O)cc2)C(=O)N[C@@H](CCCN)C(=O)N[C@H](CC(C)C)C(=O)N[C@@H](CCN)C(=O)N[C@@H](CC2CCCCC2)C(=O)N[C@@H](C(C)(C)O)C(=O)N[C@@H](CO)C(=O)N1)C(N)=O [Compound 2321] ({CH2CO}-[Dap]Y(Carboxymethyl)D[Phe(3-Me)]Y(Carboxymethyl)[Bip]Y(Carboxymethyl)[Orn][dL][Dab][Cha][Val(3-OH)]SCG[Pra]-NH2; thioether N-14) | 19.3
CC(C)C[C@@H]1NC(=O)[C@H](CCN)NC(=O)[C@@H](CC(C)C)NC(=O)[C@H](CCCCN)NC(=O)[C@H](CCCNC(N)=O)NC(=O)[C@H](Cc2ccc(-c3ccccc3)cc2)NC(=O)[C@H](C(C)C)NC(=O)[C@H](Cc2c[nH]c3ccccc23)NC(=O)[C@H](CC(=O)O)NC(=O)[C@H](Cc2ccc(O)cc2)NC(=O)[C@H](CC(N)=O)NC(=O)CSC[C@@H](C(=O)NCC(N)=O)NC(=O)[C@H](CO)NC(=O)[C@H](C(C)C)NC1=O [Compound 1113] ({CH2CO}-NYDWV[Bip][Cit]K[dL][Dab]LVSCG-NH2; thioether N-14) | 15.6
CC(C)C[C@H]1NC(=O)[C@H](CCCN)NC(=O)[C@H](CCC(=O)O)NC(=O)[C@H](Cc2ccc(-c3ccccc3)cc2)NC(=O)[C@H](C(C)C)NC(=O)[C@H](Cc2cccc(C(F)(F)F)c2)NC(=O)[C@H](CC(=O)O)NC(=O)[C@H](Cc2ccncc2)NC(=O)[C@H](Cc2ccccc2)NC(=O)CSC[C@@H](C(=O)N[C@@H](C)C(N)=O)NC(=O)[C@H]([C@@H](C)O)NC(=O)[C@H](C(C)C)NC(=O)[C@H](CC2CCCCC2)NC(=O)[C@H](CCN)NC1=O [Compound 1463] ({CH2CO}-F[4Pal]D[Phe(3-CF3)]V[Bip]E[Orn][dL][Dab][Cha]VTCA-NH2; thioether N-14) | 24.4
CC(C)C[C@H]1NC(=O)[C@H](CCCN)NC(=O)[C@H](CCC(=O)O)NC(=O)[C@H](Cc2ccc(-c3ccccc3)cc2)NC(=O)[C@H](C(C)C)NC(=O)[C@H](Cc2c[nH]c3ccccc23)NC(=O)[C@H](CC(=O)O)NC(=O)[C@H](Cc2ccc(OCC(=O)O)cc2)NC(=O)[C@H](Cc2ccc(OCC(=O)O)cc2)NC(=O)CSC[C@@H](C(=O)N[C@@H](C)C(N)=O)NC(=O)[C@H]([C@@H](C)O)NC(=O)[C@H](C(C)C)NC(=O)[C@H](CC2CCCCC2)NC(=O)[C@H](Cc2cnc[nH]2)NC1=O [Compound 1593] | 23
CC(C)[C@@H]1NC(=O)[C@H](Cc2c[nH]c3ccccc23)NC(=O)[C@H](CC(=O)O)NC(=O)[C@H](Cc2ccc(OCC(=O)O)cc2)NC(=O)[C@H](CCCCNC(=N)N)NC(=O)CSC[C@@H](C(=O)N[C@@H](CC(N)=O)C(N)=O)NC(=O)[C@H](CO)NC(=O)[C@H](C(C)C)NC(=O)[C@H](CC2CCCCC2)NC(=O)[C@H](CCN)NC(=O)[C@@H](C)NC(=O)[C@H](CCCN)NC(=O)[C@H](CC(N)=O)NC(=O)[C@H](Cc2ccc(-c3ccccc3)cc2)NC1=O [Compound 2554] ({CH2CO}-[hArg]Y(Carboxymethyl)DWV[Bip]N[Orn][dA][Dab][Cha]VSCN-NH2; thioether N-14) | 16.9
C#CC[C@H](NC(=O)[C@H](CCN)NC(=O)[C@@H]1CSCC(=O)N[C@@H](CCC)C(=O)N[C@@H](Cc2ccc(OCC(=O)O)cc2)C(=O)N[C@@H](CC(=O)O)C(=O)N[C@@H](Cc2cccc(C)c2)C(=O)N[C@@H](Cc2ccc(OCC(=O)O)cc2)C(=O)N[C@@H](Cc2ccc(-c3ccccc3)cc2)C(=O)N[C@@H](Cc2ccc(OCC(=O)O)cc2)C(=O)N[C@@H](CCCN)C(=O)N[C@H](CC(C)C)C(=O)N[C@@H](CCN)C(=O)N[C@@H](CC2CCCCC2)C(=O)N[C@@H](C(C)C)C(=O)N[C@@H](CCC(=O)O)C(=O)N1)C(=O)O [Compound 1826] ({CH2CO}-[Nva]Y(Carboxymethyl)D[Phe(3-Me)]Y(Carboxymethyl)[Bip]Y(Carboxymethyl)[Orn][dL][Dab][Cha]VEC[Dab][Pra]-OH; thioether N-14) | 4
CC(C)C[C@H]1NC(=O)[C@H](CN)NC(=O)[C@H](C(C)C)NC(=O)[C@H](Cc2ccc(-c3ccccc3)cc2)NC(=O)[C@H](C(C)C)NC(=O)[C@H](Cc2c[nH]c3ccccc23)NC(=O)[C@H](CC(=O)O)NC(=O)[C@H](Cc2ccncc2)NC(=O)[C@H](CN)NC(=O)CSC[C@@H](C(=O)NCC(N)=O)NC(=O)[C@H](CO)NC(=O)[C@H](C(C)C)NC(=O)[C@H](CC2CCCCC2)NC(=O)[C@H](CC(N)=O)NC1=O [Compound 1651] ({CH2CO}-[Dap][4Pal]DWV[Bip]V[Dap][dL]N[Cha]VSCG-NH2; thioether N-14) | 17.4
